{"source": "patent US7803381B2", "about": "“Retro-inverso gonadotropin-releasing hormone peptide and vaccine composition” (Shimoda Biotech (Pty) Ltd., priority 2002, dated 2010)", "key": {"human GnRH receptor": {"biological_target": "T1, human GnRH receptor (Homo sapiens, UniProt P30968)", "T1 construct": "expressed in transfected cells; host or cells: COS-1 cells, transient transfection (DEAE-Dextran), vector pcDNA I/AMP", "T1 sequence (P30968 1-328)": "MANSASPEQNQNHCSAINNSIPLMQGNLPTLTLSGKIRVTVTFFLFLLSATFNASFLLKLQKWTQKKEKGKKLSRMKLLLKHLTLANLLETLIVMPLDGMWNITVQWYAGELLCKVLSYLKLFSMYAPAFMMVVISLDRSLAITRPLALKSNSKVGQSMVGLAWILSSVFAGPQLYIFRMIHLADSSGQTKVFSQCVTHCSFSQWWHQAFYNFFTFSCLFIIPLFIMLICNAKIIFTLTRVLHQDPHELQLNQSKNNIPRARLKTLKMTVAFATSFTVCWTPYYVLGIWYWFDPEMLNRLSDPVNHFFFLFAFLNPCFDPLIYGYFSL", "test": "GnRH analog-stimulated inositol phosphate (IP) accumulation in COS-1 cells transiently transfected with human GnRH receptor", "assay_type": "cell-based", "experimental": "COS-1 cells were cultured in Dulbecco's modified Eagle's medium/DMEM (Life Technologies, Inc., Paisley, Scotland), supplemented with 10% foetal calf serum (FCS, Delta bioproducts, Kempton Park, South Africa) in a 10% CO2 incubator at 37° C. Cells were harvested with 0.05% trypsin. For all transient transfections 2×10^5 cells/well were seeded into 12-well plates and cultured overnight in DMEM containing 10% FCS and antibiotics (2 mg/ml streptomycin sulphate, 4000 U/ml sodium benzyl penicillin). COS-1 cells were transiently transfected using the DEAE-Dextran method, as previously described.\nThe transfected COS-1 cells (2×10^5 cells/well) were incubated overnight in 0.5 ml Medium 199 (Life Technologies Inc.) with antibiotics and myo-[2-^3H] inositol (1 μCi/well, Amersham Pharmacia Biotech) as previously described. […] Aspirating the medium and addition of 10 mM formic acid (1 ml/well) terminated the incubation. Inositol phosphates separated from the formic acid extract on DOWEX-1 ion exchange columns and eluted into scintillation liquid (Quicksafe, Zinsser Analytical, Frankfurt, Germany) and the radioactivity was counted.\nIP assays were performed in duplicate and four-parameter nonlinear curve fitting (PRISM, GraphPad Software, In., San Diego, Calif.) was used to estimate the peptide concentrations required to stimulate half-maximal IP production (EC50). […]"}, "[1]": {"test_system": "purified rabbit anti-RI-GnRH antibodies", "test": "Inhibition immunoassay (ELISA): peptide displacement of anti-RI-GnRH antibodies from fixed RI-GnRH", "assay_type": "binding", "conditions": "for inhibition by free peptide of anti-RI-GnRH antibody binding to fixed RI-GnRH: ELISA, increasing peptide concentrations", "experimental": "(§1) Microtitre plates were coated with RI-GnRH peptide (5 μg/ml) in 100 mM Na2CO3 (pH=9.6) and incubated for one hour at 37° C. After several washes with PBS (pH=7.4) plates were saturated for one hour with 1% BSA in PBS supplemented with Tween 20 (0.1% wt/volume) at 37° C. Sera from immunised rabbits and mice at different dilutions (1:500 to 1:3200) were added to the plates and incubated for one hour at 37° C. […] Washed plates were reacted with 3,3′,5,5′-tetramethyl benzidine (TMB) and […] as substrate.\n(§2) Nonspecific inhibition was determined with an unrelated L peptide, […](V9C), and an unrelated RI peptide ([…]. Various dilutions of anti-RI-GnRH antibodies were preincubated with increasing concentrations of peptide (3.9-1000 nM) for 1 h at 37° C. The percent inhibition of signal was calculated from the amount of anti-RI-GnRH antibodies that bound RI-GnRH in the presence of increasing peptide concentrations against the amount of anti-RI-GnRH antibodies that bound RI-GnRH in the absence of competing peptide."}, "rabbits": {"test_system": "rabbits", "test": "Rabbit immunisation with RI-GnRH conjugated with MAO", "assay_type": "in vivo", "conditions": "100 μg/rabbit conjugated with MAO, CFA then IFA boosters", "experimental": "Two adult female rabbits (Harlan, Leicestershire, UK) were immunised with RI-GnRH (100 μg/rabbit) conjugated with MAO. The primary injections were given subcutaneously in complete Freund's adjuvant (CFA). These were followed by three booster injections (1 ml/rabbit) in incomplete Freund's adjuvant (IFA) at two week intervals. The last booster injection was given four weeks later using 200 μg free peptide together with 1 mg methylated-BSA (m-BSA). The rabbits were bled one week after each injection. Two experiments were performed with mice to test whether immunization with RI-GnRH would generate GnRH antibodies, and different methods of immunization with RI-GnRH were tested.\nas §1"}, "male BALB/c mice": {"test_system": "male BALB/c mice", "assay_type": "in vivo, mouse", "experimental": "Nine male BALB/c mice (Janvier, France), nine weeks of age, were immunised intraperitoneally (i.p.) with either 25 μg/mouse RI-GnRH conjugated with MAO (n=5) or saline buffer (n=4). The primary injections were given in CFA supplemented with 200 μg m-BSA. These were followed by two-booster injections in IFA and m-BSA at day 15 and 45 after primary injection. The mice were weighed and bled one week after each immunisation. On day 45, males injected with RI-GnRH conjugate or saline were placed with females of proven fertility and litters observed. The males were sacrificed 75 days after primary injection for histological examination.\nas §1, §2\nMale mice were sacrificed and the testes dissected. Testes were weighed and fixed in formalin/saline solution (12%) for routine histology. The fixed testes were dehydrated, sectioned (5 μm thick) and stained with haematoxylin and eosin."}, "BALB/c mice": {"test_system": "BALB/c mice", "test": "Second mice example: immunisation of BALB/c mice with unconjugated RI-GnRH coinjected with CpG, titre and fertility", "assay_type": "in vivo, mouse", "conditions": "for Titre 1 (d 37): individual mice 1-6, without complete Freund's adjuvant", "experimental": "In the second experiment, four week old BALB/c mice (3 of each sex) were immunised with 25 μg/mouse unconjugated RI-GnRH coinjected with CpG (50 μg/mouse) oligonucleotide and m-BSA. A control group (2 of each sex) received saline buffer together with 50 μg/mouse CpG oligonucleotide as adjuvant (Klinman, et al., 1999) supplemented with 200 μg m-BSA. All injections were given in 10% v/v IFA. Mice were immunised at days 1, 15 and 30. They were bled and mated with partners of proven fertility at day 37 after the initial immunisation.\nas §1"}, "GnRH [2]": {"biological_target": "T2, GnRH (Homo sapiens, UniProt P01148)", "T2 construct": "made in house; host or cells: chemical solid-phase synthesis (University of Cape Town); receptor expressed in transfected COS-1 cells", "test": "Antiserum/antibody inhibition of GnRH stimulated IP accumulation in COS-1 cells transfected with human GnRH receptor", "assay_type": "cell-based, mammalian", "experimental": "(§3) The transfected COS-1 cells (2×10^5 cells/well) were incubated overnight in 0.5 ml Medium 199 (Life Technologies Inc.) with antibiotics and myo-[2-^3H] inositol (1 μCi/well, Amersham Pharmacia Biotech) as previously described. The labelled cells were incubated with various concentrations of GnRH-analogs for one hour at 37° C. in the presence of LiCl as described. Aspirating the medium and addition of 10 mM formic acid (1 ml/well) terminated the incubation. Inositol phosphates separated from the formic acid extract on DOWEX-1 ion exchange columns and eluted into scintillation liquid (Quicksafe, Zinsser Analytical, Frankfurt, Germany) and the radioactivity was counted. […] Serum from the same rabbits before immunisation was also tested. […] After one hour the incubation was terminated with formic acid and inositol phosphates were separated and counted as described. […] The mixture was added to labelled cells, and the inhibition of IP production was calculated. […] Purified anti-RI-GnRH antibodies were tested for their ability to discriminate among GnRH, [[…]]GnRH, and GnRH II. […] Stimulating with these concentrations [half-maximal effective concentrations (EC50)] in the absence of antibody produced similar levels of IP counts. […] The mixture was added to labelled cells and the inhibition of IP production calculated as described. IP assays were performed in duplicate and four-parameter nonlinear curve fitting (PRISM, GraphPad Software, In., San Diego, Calif.) was used to estimate the peptide concentrations required to stimulate half-maximal IP production (EC50). […] All kinetic analysis was performed with BiaEvaluation 3 (BIACORE) software, using the standard χ^2 statistic test. […] All statistical analyses were performed with StatView, using a standard correlation program."}, "GnRH [3]": {"test_system": "GnRH", "test": "Antiserum/antibody inhibition of GnRH stimulated IP accumulation in COS-1 cells transfected with human GnRH receptor", "assay_type": "cell-based, mammalian", "conditions": "5 nM antibody fraction; 0.3 nM GnRH, 1 nM [Gln^8]GnRH, 1 nM GnRH II", "experimental": "as §3"}, "RI-GnRH peptide": {"test_system": "RI-GnRH peptide", "test": "ELISA binding of purified anti-RI-GnRH antibody fractions to RI-GnRH", "conditions": "ELISA titre", "experimental": "as §1"}}, "note": "“And” between values parts separate entries of the source, which are not always exact repeats. Equal entries are not always repeated. “Also recorded” adds a separate entry of the source. Non-standard residues stand in square brackets, D forms with d. Residues, ends and D or L forms follow the SMILES beside them. No end group written: not given here. pGlu = O=C1CC[C@@H](C(=O)O)N1", "data": [{"molecule": "NC(=O)CNC(=O)[C@@H]1CCCN1C(=O)[C@H](Cc1ccc(O)cc1)NC(=O)[C@H](Cc1c[nH]c2ccccc12)NC(=O)CNC(=O)[C@H](Cc1c[nH]cn1)NC(=O)[C@H](CO)NC(=O)[C@H](Cc1c[nH]c2ccccc12)NC(=O)[C@H](Cc1c[nH]cn1)NC(=O)[C@@H]1CCC(=O)N1", "note": "[GnRH II, [His^5, Trp^7, Tyr^8]GnRH, reference compound] ([pGlu]HWSHGWYPG-NH2)", "values": [{"measurement": "EC50", "setting": "human GnRH receptor; absence of antibody, read-out: EC50 of ligand-stimulated IP accumulation", "value": 1, "unit": "nM"}, {"measurement": "inhibition by free peptide of anti-RI-GnRH antibody binding to fixed RI-GnRH", "setting": "[1]", "value": "cross-react less"}]}, {"molecule": "CC(C)C[C@H](NC(=O)CNC(=O)[C@H](Cc1ccc(O)cc1)NC(=O)[C@H](CO)NC(=O)[C@H](Cc1c[nH]c2ccccc12)NC(=O)[C@H](Cc1c[nH]cn1)NC(=O)[C@@H]1CCC(=O)N1)C(=O)N[C@@H](CCCNC(=N)N)C(=O)N1CCC[C@H]1C(=O)NCC(N)=O", "note": "[GnRH]", "values": [{"measurement": "inhibition by free peptide of anti-RI-GnRH antibody binding to fixed RI-GnRH", "setting": "[1]", "value": "could also inhibit"}]}, {"molecule": "GPRLGYSWHEC (G[dP][dR][dL]G[dY][dS][dW][dH][dE][dC]; not fully specified) [RI-GnRH, retro-inverso GnRH peptide with additional C-terminal cysteine for conjugation]", "values": [{"measurement": "effect of RI-GnRH peptide alone on IP accumulation / GnRH stimulated IP accumulation", "setting": "human GnRH receptor; data not shown, listed as RI-GnRH peptide", "value": "could not stimulate or inhibit; also recorded: did not stimulate or inhibit"}, {"measurement": "inhibition by free peptide of anti-RI-GnRH antibody binding to fixed RI-GnRH", "setting": "[1]", "value": "incrementally decreased"}, {"measurement": "anti-RI-GnRH antibody response", "setting": "rabbits", "value": "high titre"}, {"measurement": "development of anti-RI-GnRH antibodies", "setting": "male BALB/c mice; 25 μg/mouse conjugated with MAO, i.p., CFA + m-BSA", "value": "All five immunised male mice developed anti-RI-GnRH antibodies"}, {"measurement": "testis histology", "setting": "male BALB/c mice; males sacrificed 75 days after primary injection", "value": "atrophied Leydig and Sertoli cells, less spermatogonia and primary spermatocytes, presence of very few spermatids and reduced diameters of the seminiferous tubules"}, {"measurement": "infertile immunised male mice", "setting": "male BALB/c mice; mated with normal females from day 45", "value": "Two of the group of five"}, {"measurement": "adverse side effects or changes in body weight", "setting": "male BALB/c mice; mouse, in vivo", "value": "no indication of adverse side effects or changes in body weight"}, {"measurement": "testis weight", "setting": "male BALB/c mice; mouse, in vivo", "value": "reduced testis weight"}, {"measurement": "production of anti-RI-GnRH antibodies", "setting": "BALB/c mice; 25 μg/mouse unconjugated RI-GnRH with CpG 50 μg/mouse, m-BSA, 10% IFA", "value": "produced anti-RI-GnRH antibodies, which cross-reacted with the native hormone"}, {"measurement": "mice infertile until day 220", "setting": "BALB/c mice; boosted at day 97", "value": "four mice stayed infertile"}, {"measurement": "infertile mice on day 120", "setting": "BALB/c mice; boosted at day 97, mated one week thereafter", "value": "Two mice were infertile"}, {"measurement": "Titre 1 (d 37)", "setting": "BALB/c mice; female mice", "value": "3.00E−05 and 1.30E−04 and 1.00E−02"}, {"measurement": "Titre 1 (d 37)", "setting": "BALB/c mice; male mice", "value": "3.00E−05 and 1.00E−03 and 5.00E−04"}, {"measurement": "fertility after pairing at day 37", "setting": "BALB/c mice; male and female mice paired with normal partners", "value": "All mice were infertile after pairing at day 37, except for one"}, {"measurement": "adverse side effects or changes in body weight", "setting": "BALB/c mice; mouse, in vivo", "value": "no indication of adverse side effects or changes in body weight"}, {"measurement": "litters from further matings up to day 90", "setting": "BALB/c mice; mouse, in vivo", "value": "no litters"}]}, {"molecule": "KSCN", "values": [{"measurement": "IC50", "setting": "GnRH [2]; 0.3 nM GnRH, read-out: antibody concentration inhibiting 50% of GnRH-stimulated IP accumulation", "value": 1.7, "unit": "nM"}, {"measurement": "inhibition of GnRH (analog) stimulated IP production by eluted antibody fractions", "setting": "GnRH [3]", "value": "most effective"}, {"measurement": "cross-reaction of eluted antibody fractions with GnRH", "setting": "[1]; inhibition ELISA", "value": "cross-reacted most efficiently"}]}, {"molecule": "VRTVEDGEC [V9C, unrelated L peptide]", "values": [{"measurement": "inhibition by free peptide of anti-RI-GnRH antibody binding to fixed RI-GnRH", "setting": "[1]", "value": "not significantly inhibited; also recorded: low inhibition"}]}, {"molecule": "glycine", "values": [{"measurement": "fold suppression of EC50 of GnRH-stimulated IP accumulation", "setting": "GnRH [2]; 5 nM antibody fraction", "value": 4.4, "unit": "fold"}, {"measurement": "affinity of antibody populations for RI-GnRH peptide", "setting": "RI-GnRH peptide", "value": "higher affinity than those eluted with KSCN"}]}]}
